Results as given in article PMC11672400, “Synthesis, Spectroscopic Characterization, Structural Analysis, and Evaluation of Anti-Tumor, Antimicrobial, and Antibiofilm Activities of Halogenoaminopyrazoles Derivatives” (Antibiotics, 2024).
In brackets after ≈: the same amount, converted by molar mass. Read-outs that look alike come from different tables or passages of the source.

Tests used:
[1] = MTT cell viability / cytotoxicity on normal fibroblasts; type: cell-based, mouse; conditions: mouse
From the text: (§1) Merck chemicals were utilized.
(§2) Untreated cells were used as control, considered 100% viable cells.

[2] = tested on: NCTC (clone 929) mouse fibroblast cells; assay: as above; type: cell-based; conditions: for IC50: Mus musculus, NCTC clone 929, NCTC normal fibroblasts, MTT, 48 h
From the text: as §1, §2

[3] = tested on: Pseudomonas aeruginosa ATCC27853; assay: Antibiofilm assay (crystal violet), MBIC; type: cell-based; conditions: 37 °C; for minimal effective concentration: Pseudomonas aeruginosa, ATCC27853, 24 h, read-out: Minimum biofilm inhibition concentration (MBIC), Pseudomonas aeruginosa ATCC27853
Summary of the method: (§3)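 Biofilms grown in nutrient broth with test substances for 24 h at 37 °C. After rinsing with sterile physiological water, attached cells were fixed 5 min with methanol, then crystal violet stained.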

[4] = tested on: Staphylococcus aureus ATCC25923; assay: Antibiofilm assay (crystal violet), MBIC; type: cell-based; conditions: 24 h, 37 °C; for minimal effective concentration: Staphylococcus aureus, ATCC25923, read-out: Minimum biofilm inhibition concentration (MBIC), Staphylococcus aureus ATCC25923
Summary of the method: as §3

[5] = tested on: Escherichia coli ATCC25922; assay: Antibiofilm assay (crystal violet), MBIC; type: cell-based; conditions: 37 °C; for minimal effective concentration: Escherichia coli, ATCC25922, 24 h, read-out: Minimum biofilm inhibition concentration (MBIC), Escherichia coli ATCC25922
Summary of the method: as §3

[6] = tested on: Enterococcus faecalis ATCC29212; assay: Antibiofilm assay (crystal violet), MBIC; type: cell-based; conditions: Enterococcus faecalis, ATCC29212, 24 h, 37 °C, read-out: Minimum biofilm inhibition concentration (MBIC), Enterococcus faecalis ATCC29212
Summary of the method: as §3

[7] = tested on: HEp-2 epithelial tumor cells; assay: MTT cell viability / anti-tumor activity; conditions: Homo sapiens; for viability at 3.1 µg/mL / viability at 6.25 µg/mL / viability at 12.5 µg/mL / viability at 25 µg/mL / viability at 50 µg/mL: read-out: Cell viability on Hep2 cells (%); for IC50: read-out: IC50 µg/mL on HEp-2 Cells 48 h, HEp-2 epithelial tumor cells, MTT, 48 h
Method: The cytotoxicity of the halogenoaminopyrazole derivatives 4a–f and 5a–e was tested on L929 mouse fibroblast cells, and their anti-tumor activity was evaluated on the human carcinoma epithelial cell line HEp-2. The experiments were performed in a concentration range of 3.1–50 μg/mL.
The MTT test was used, 3-(4,5-dimethylthiazol-2-yl)-2,5-diphenyl tetrazolium bromide), which is reduced to insoluble purple-blue formazan crystals precipitated by living cells. Cell viability assessed using the MTT assay reflects the activity of mitochondrial enzymes in treated cells compared to the control culture of untreated cells.
To assess the biocompatibility of the substances, a stable mouse fibroblast cell line, NCTC (clone 929), was grown in minimal essential medium (MEM) with 10% fetal bovine serum (FBS) and 2 mM L-glutamine, along with 100 U/mL penicillin, 100 µg/mL streptomycin, and 500 µg/mL neomycin. The concentration of the compounds used was 0.06 g/2 mL DMSO.
In cytotoxicity experiments, compound solutions were utilized at concentrations of 3.1 μg/mL, 6.25 μg/mL, 12.5 μg/mL, 25 μg/mL, and 50 μg/mL. The NCTC cell suspension was placed into 96-well culture plates with a concentration of 4 × 10^4 cells/mL and incubated at 37 °C for 24 h in a 5% CO2 humidified atmosphere. The compounds under study were placed in sets of three at varying concentrations ranging from 3.1 μg/mL to 50 μg/mL in every well, and the plates were then kept under standard conditions for 48 h. Cell viability was determined through the utilization of the MTT assay. Next, the MTT solution was removed, then isopropanol was added to solubilize the formazan crystals. The colored solution was then measured for absorbance at 570 nm using a Berthold Technologies, LB 940 microplate reader (Bad Wildbad, Germany). The outcomes were determined based on Formula (1) while considering that the recorded optical density is directly related to the number of viable cells in the cell culture being examined [35, 36]. % cell viability = (OD sample/OD control) × 100%(1)
For each tested compound, a graph representing percentage cell viability versus concentrations (in the range 3.1–50 µg/mL) was obtained. Then, the IC50 value was calculated by using ED50 plus V1.0 software.

[8] = tested on: Pseudomonas aeruginosa ATCC27853; assay: Qualitative evaluation of antimicrobial activity (inhibition zone, spot on agar); type: cell-based; parameters: key: (+) inhibited bacterial growth; (-) did not inhibit bacterial growth; conditions: 0.06 g/2 mL DMSO, 5 µL spot
Method: (§4) For testing the antimicrobial/antibiofilm activity, the concentration of the studied compounds was identical to 0.06 g/2 mL DMSO. 0.5 Standard McFarland suspension was used, which was inoculated onto Mueller Hinton agar plates, (Remel, Lenexa, KS, USA), 5 µL of each compound was spotted and incubated overnight at 37 °C. Antimicrobial activity was observed as zones of inhibition formed around the spot.

[9] = tested on: Staphylococcus aureus ATCC25923; assay: as above; type: cell-based; parameters: key: (+) inhibited bacterial growth; (-) did not inhibit bacterial growth; conditions: 0.06 g/2 mL DMSO, 5 µL spot
Method: as §4

[10] = tested on: Escherichia coli ATCC25922; assay: as above; type: cell-based; parameters: key: (+) inhibited bacterial growth; (-) did not inhibit bacterial growth; conditions: 0.06 g/2 mL DMSO, 5 µL spot
Method: as §4

[11] = tested on: Enterococcus faecalis ATCC29212; assay: as above; type: cell-based; parameters: key: (+) inhibited bacterial growth; (-) did not inhibit bacterial growth; conditions: 0.06 g/2 mL DMSO, 5 µL spot
Method: as §4

[12] = tested on: Pseudomonas aeruginosa ATCC27853; assay: MIC by serial microdilution in liquid medium; type: cell-based; conditions: Pseudomonas aeruginosa, ATCC27853; 24 h, 37 °C; read-out: Minimum inhibitory concentration, Pseudomonas aeruginosa ATCC27853
Summary of the method: (§5)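 Twofold serial dilutions from a DMSO stock (10 mg/mL) in Tryptone Soy Broth, inoculated with 10 µL of a 10^6 CFU/mL suspension, incubated 24 h at 37 °C. Growth judged visually and by OD 620 nm; MIC (µg/mL) is the lowest concentration without growth, run in triplicate.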

[13] = tested on: Staphylococcus aureus ATCC25923; assay: MIC by serial microdilution in liquid medium; type: cell-based; conditions: 24 h, 37 °C; for MIC: Staphylococcus aureus, ATCC25923, read-out: Minimum inhibitory concentration, Staphylococcus aureus ATCC25923
Summary of the method: as §5

[14] = tested on: Escherichia coli ATCC25922; assay: MIC by serial microdilution in liquid medium; type: cell-based; conditions: 24 h, 37 °C; for MIC: Escherichia coli, ATCC25922, read-out: Minimum inhibitory concentration, Escherichia coli ATCC25922
Summary of the method: as §5

[15] = tested on: Enterococcus faecalis ATCC29212; assay: MIC by serial microdilution in liquid medium; type: cell-based; conditions: Enterococcus faecalis, ATCC29212; 24 h, 37 °C; read-out: Minimum inhibitory concentration, Enterococcus faecalis ATCC29212
Summary of the method: as §5

[16] = NCTC clone 929 (L929) mouse fibroblast cells
[17] = NCTC clone 929 (L929) mouse fibroblast cells, 48h
[18] = read-out: Cell viability on NCTC cells (%)
[19] = 48h, read-out: Cell viability on NCTC cells (%)

Structure (SMILES)	melting point [°C]	IC50 [2] [µg/mL]	minimal effective concentration [3] [µg/mL]	Minimum biofilm inhibition concentration (MBIC), Staphylococcus aureus ATCC25923 [4] [µg/mL]	minimal effective concentration [4] [µg/mL]	minimal effective concentration [5] [µg/mL]	minimal effective concentration [6] [µg/mL]	viability at 3.1 µg/mL ([7]; HEp-2, 24 h) [%]	viability at 6.25 µg/mL ([7]; HEp-2, 24 h) [%]	viability at 12.5 µg/mL ([7]; HEp-2, 24 h) [%]	viability at 25 µg/mL ([7]; HEp-2, 24 h) [%]	viability at 50 µg/mL ([7]; HEp-2, 24 h) [%]	viability at 3.1 µg/mL ([7]; HEp-2, 48 h) [%]	viability at 6.25 µg/mL ([7]; HEp-2, 48 h) [%]	viability at 12.5 µg/mL ([7]; HEp-2, 48 h) [%]	viability at 25 µg/mL ([7]; HEp-2, 48 h) [%]	viability at 50 µg/mL ([7]; HEp-2, 48 h) [%]	IC50 ([7]; HEp-2, 48 h) [µg/mL]	Qualitative antimicrobial activity, Pseudomonas aeruginosa ATCC27853 [8]	Qualitative antimicrobial activity, Staphylococcus aureus ATCC25923 [9]	further results
Cc1nn(CNc2ccc(F)cc2)c(C)c1[N+](=O)[O-] [4a, N-[(3,5-dimetyl-4-nitro-1H-pyrazol-1-yl)-methyl]-4-fluoroaniline]	117 to 119	46.4 ± 1.33 (≈ 176 µM)	930 ± 0.28	230 ± 0.11	230	930 ± 0.05	930 ± 0.27	99.1 ± 3.42	94.4 ± 1.19	93.38 ± 0.92	91.3 ± 3.73	73.2 ± 2.71	93.05 ± 0.78	89 ± 1.5	83.8 ± 2.3	72.3 ± 1.99	36.4 ± 1.45	40.2 ± 1.26 (≈ 152 µM)	+	+	viability at 24 h, 3.1 µg/mL ([1]; NCTC clone 929 (L929) mouse fibroblast cells, 3.1 µg/mL): 99.6 ± 1.38%; viability at 24 h, 6.25 µg/mL [1, 16]: 99.3 ± 2.2%; viability at 48 h, 6.25 µg/mL [1, 17]: 111%; viability at 24 h, 12.5 µg/mL [1, 16]: 99 ± 2.51%; viability at 48 h, 12.5 µg/mL [1, 17]: 101 ± 1.48%; viability at 24 h, 25 µg/mL [1, 16]: 90.2 ± 1.71%; viability at 48 h, 25 µg/mL [1, 17]: 73.5 ± 2.96%; viability at 24 h, 50 µg/mL [1, 16]: 62.7 ± 1.88%; viability at 48 h, 50 µg/mL [1, 17]: 47.5 ± 1.31%; Cell viability on NCTC cells (%) ([2]; 6.25 µg/mL, 48h): 109.13±3.80%; Qualitative antimicrobial activity, Escherichia coli ATCC25922 [10]: +; Qualitative antimicrobial activity, Enterococcus faecalis ATCC29212 [11]: -; MIC [12]: 930 ± 0.27 µg/mL (≈ 3520 µM); Minimum inhibitory concentration, Staphylococcus aureus ATCC25923 [13]: 230 ± 0.13 µg/mL (≈ 870 µM); MIC [13]: 230 µg/mL (≈ 870 µM); MIC [14]: 930 ± 0.14 µg/mL (≈ 3520 µM); MIC [15]: 930 ± 0.25 µg/mL (≈ 3520 µM)
Cc1nn(CN(Cn2nc(C)c([N+](=O)[O-])c2C)c2ccc(F)cc2)c(C)c1[N+](=O)[O-] [5a, N,N-bis-[(3,5-dimetyl-4-nitro-1H-pyrazol-1-yl)-methyl]-4-fluoroaniline]	78 to 80	> 50	460	230 ± 0.05	230	460	930 ± 0.14	90.8 ± 1.1	104.4 ± 0.32	96.6 ± 3.1	82.7 ± 1.85	57.2 ± 1.13	90.1 ± 2.22	85.2 ± 3.13	80.1 ± 1.54	67.4 ± 3.23	38.8 ± 0.71	40.5 ± 0.79 (≈ 97.1 µM)	+	+	viability at 24 h, 3.1 µg/mL ([1]; 3.1 µg/mL, read-out: Cell viability on NCTC cells (%)): 97.7 ± 1.8%; viability at 48 h, 3.1 µg/mL ([1]; 3.1 µg/mL, 48h, read-out: Cell viability on NCTC cells (%)): 87.19 ± 0.7%; viability at 24 h, 6.25 µg/mL [1, 18]: 98.3 ± 2.22%; viability at 48 h, 6.25 µg/mL [1, 19]: 88.7 ± 2.4%; viability at 24 h, 12.5 µg/mL [1, 18]: 100 ± 2.07%; viability at 48 h, 12.5 µg/mL [1, 19]: 98.2 ± 2.04%; viability at 24 h, 25 µg/mL [1, 18]: 97.4 ± 2.4%; viability at 48 h, 25 µg/mL [1, 19]: 93.7 ± 1.17%; viability at 24 h, 50 µg/mL [1, 18]: 88.6 ± 2.66%; viability at 48 h, 50 µg/mL [1, 19]: 92.5 ± 1.32%; Minimum biofilm inhibition concentration (MBIC), Pseudomonas aeruginosa ATCC27853 ([3]; 24 h): 460 ± 0.12 µg/mL; Minimum biofilm inhibition concentration (MBIC), Escherichia coli ATCC25922 ([5]; 24 h): 460 ± 0.12 µg/mL; Qualitative antimicrobial activity, Escherichia coli ATCC25922 [10]: +; Qualitative antimicrobial activity, Enterococcus faecalis ATCC29212 [11]: -; MIC [12]: 460 ± 0.04 µg/mL (≈ 1100 µM); Minimum inhibitory concentration, Staphylococcus aureus ATCC25923 [13]: 460 ± 0.03 µg/mL (≈ 1100 µM); MIC [13]: 460 µg/mL (≈ 1100 µM); Minimum inhibitory concentration, Escherichia coli ATCC25922 [14]: 460 ± 0.06 µg/mL (≈ 1100 µM); MIC [14]: 460 µg/mL (≈ 1100 µM); MIC [15]: 930 ± 0.06 µg/mL (≈ 2230 µM)
